Series [1] has as its target T1, MRGPRX4-83S (Homo sapiens, UniProt Q96LA9, L83S). Nature of the series: β-arrestin assay (CHO β-arrestin human MRGPRX4-83S). The format is cell-based. Details: host or cells: CHO β-arrestin cells. To be noted: for Emax: efficacy based on 100 nM B-16 (set as 100%), read-out: Emax; for EC50: β-arrestin recruitment, CHO cells, MRGPRX4-83S, read-out: EC50 ± SEM. Put shortly:
(§1)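 Read-out for arrestin: β-galactosidase complementation upon β-arrestin recruitment in recombinant CHO cells. Ca2+ flux: astrocytes carrying MRGPRX4-83L; LN229 glioblastoma line with native 83S expression.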

In series [2] the target is T2, human MRGPRX4-83L (Homo sapiens, UniProt Q96LA9).
T2 construct: host or cells: CHO β-arrestin cells
T2 sequence (Q96LA9 whole entry): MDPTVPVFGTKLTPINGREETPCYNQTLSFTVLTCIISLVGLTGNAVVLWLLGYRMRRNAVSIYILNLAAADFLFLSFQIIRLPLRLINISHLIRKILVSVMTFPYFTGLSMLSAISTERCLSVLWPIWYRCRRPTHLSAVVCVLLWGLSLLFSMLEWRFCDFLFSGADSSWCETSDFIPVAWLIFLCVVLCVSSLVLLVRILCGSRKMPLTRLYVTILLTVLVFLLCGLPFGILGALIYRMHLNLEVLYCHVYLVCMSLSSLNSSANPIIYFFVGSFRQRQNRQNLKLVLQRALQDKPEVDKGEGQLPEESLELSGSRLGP
Nature of the series: β-arrestin assay (CHO β-arrestin ARMS1-ProLink 2 human MRGPRX4 83L). The format is cell-based. To be noted: for Emax: efficacy based on maximal effect of 100 nM B-16 (set as 100%), read-out: Emax; for EC50: β-arrestin recruitment, CHO cells, MRGPRX4-83L, read-out: EC50 ± SEM. Put shortly: as §1

In series [3] the target is T2, human MRGPRX4-83L. In words: Calcium assay (human MRGPRX4 83L), recombinant astrocytes. To be noted: for EC50: calcium mobilization, MRGPRX4-83L, read-out: EC50 ± SEM; for Emax: efficacy based on maximal effect of 1 μM B-16 (set as 100%), read-out: Emax. The format is cell-based. Put shortly: as §1
Series [4] addresses T1, MRGPRX4-83S. In words: Calcium assay (human glioblastoma LN229 cells expressing the MRGPRX4-83S). To be noted: for Emax: LN-229, efficacy based on 30 μM H-1 (set as 100%), read-out: Emax; for EC50: calcium mobilization, LN229 cells, MRGPRX4-83S, read-out: EC50 ± SEM. More on the design: LN229 glioblastoma cells natively expressing the MRGPRX4-83S; endogenous in cells; host or cells: LN229 human glioblastoma cells. The format is cell-based. Put shortly: as §1

[5] abbreviates: Table 1, means of 3-4 experiments.

The structures appear in SMILES notation.

T1 sequence (Q96LA9 whole entry L83S): as the sequence (Q96LA9 whole entry) above, with L83S counted along it

The molecule `C#CCn1c(=O)c2[nH]c(CCc3cccc(OC)c3)nc2n(CCCCP(=O)(O)OCC)c1=O` [D-3, Ethyl hydrogen (4-(8-(3-methoxyphenethyl)-2,6-dioxo-1-(prop-2-yn-1-yl)-1,2,6,7-tetrahydro-3H-purin-3-yl)butyl)phosphonate] showed a melting point of 118 to 120 °C. Further, on MRGPRX4-83S [1] (Table 2), the Emax worked out at 110% and the EC50 was determined as 5.8 ± 1.41 nM. Also, on human MRGPRX4-83L [2] (Table 1), the Emax came to 112%. In addition, the EC50 at human MRGPRX4-83L [2] (setting [5]) is 407 ± 710 nM. On human MRGPRX4-83L [3] (Table 1), the EC50 came to 36.3 ± 1.8 nM and the Emax turned out to be 114%. Also, on MRGPRX4-83S [4] (Table 2), the Emax came to 111% and the EC50 was 2.65 ± 0.72 nM.

Regarding `C#CCn1c(=O)c2c(nc(CCc3ccccc3Br)n2C(C)C)n(CCCCP(=O)(O)O)c1=O` [B-46, (4-(8-(2-Bromophenethyl)-7-isopropyl-2,6-dioxo-1-(prop-2-yn-1-yl)-1,2,6,7-tetrahydro-3H-purin-3-yl)butyl)phosphonic acid], the melting point was 109 to 111 °C. In addition, on MRGPRX4-83S [1] (Table 3), the Emax was 91% and the EC50 is 0.075 ± 0.0184 nM. Besides, on human MRGPRX4-83L [2] (Table 4), the Emax is 116% and the EC50 worked out at 13.6 ± 6.1 nM. For the same molecule, at human MRGPRX4-83L [3] (Table 4), the EC50 came out at 0.684 ± 0.073 nM and the Emax was 108%. Further, at MRGPRX4-83S [4] (Table 3), the maximal effect (Emax) was determined as 109% and the EC50 amounted to 0.79 ± 0.262 nM.

On to `C#CCn1c(=O)c2[nH]c(CCc3cccc(C(F)(F)F)c3)nc2n(CCCCP(=O)(O)O)c1=O` [B-6, (4-(2,6-Dioxo-1-(prop-2-yn-1-yl)-8-(3-(trifluoromethyl)phenethyl)-1,2,6,7-tetrahydro-3H-purin-3-yl)butyl)phosphonic acid], for which the melting point is 223 to 226 °C. Also, at MRGPRX4-83S [1] (Table 2), the Emax came to 100% and the EC50 was 20.5 ± 2.4 nM. Also, the Emax at human MRGPRX4-83L [2] (Table 1) was determined as 114%. The EC50 at human MRGPRX4-83L [2] (setting [5]) came out at 11900 ± 1800 nM. Further, on human MRGPRX4-83L [3] (Table 1), the EC50 came to 267 ± 66 nM and the maximal response (Emax) amounted to 99%. Further, at MRGPRX4-83S [4] (Table 2), the Emax stood at 150% and the EC50 was 38.2 ± 10.9 nM.

Consider `C#CCn1c(=O)c2c(nc(CCc3ccccc3Br)n2CCN)n(CCCCP(=O)(O)O)c1=O` [B-51, (4-(7-(2-Aminoethyl)-8-(2-bromophenethyl)-2,6-dioxo-1-(prop-2-yn-1-yl)-1,2,6,7-tetrahydro-3H-purin-3-yl)butyl)phosphonic acid], for which the melting point is 159 to 161 °C. In addition, at MRGPRX4-83S [1] (Table 3), the Emax is 99% and the EC50 worked out at 0.932 ± 0.177 nM. For the same molecule, at human MRGPRX4-83L [2] (Table 4), the maximal effect (Emax) was found to be 93% and the EC50 stood at 566 ± 106 nM. Moreover, at human MRGPRX4-83L [3] (Table 4), the EC50 was 79.8 ± 36.7 nM and the maximal effect (Emax) amounted to 102%. Also, at MRGPRX4-83S [4] (Table 3), the Emax amounted to 107% and the EC50 was 1.48 ± 0.4 nM.

Take `C#CCn1c(=O)c2[nH]c(CCc3ccc(OC)cc3OC)nc2n(CCCCP(=O)(O)O)c1=O` [B-10, (4-(8-(2,4-Dimethoxyphenethyl)-2,6-dioxo-1-(prop-2-yn-1-yl)-1,2,6,7-tetrahydro-3H-purin-3-yl)butyl)phosphonic acid]: the melting point lay within 255 to 257 °C. In addition, on MRGPRX4-83S [1] (Table 2), the Emax is 87% and the EC50 was found to be 71.4 ± 19.3 nM. The maximal effect (Emax) at human MRGPRX4-83L [2] (Table 1) worked out at 100%. Further, the EC50 at human MRGPRX4-83L [2] (setting [5]) came out at 14500 ± 2400 nM. Further, at human MRGPRX4-83L [3] (Table 1), the EC50 was determined as 425 ± 187 nM and the Emax came to 113%. Moreover, on MRGPRX4-83S [4] (Table 2), the Emax was 82% and the EC50 worked out at 30.6 ± 3.1 nM.

Take `C#CCn1c(=O)c2c(nc(CCc3ccccc3Br)n2CC2CCCCC2)n(CCCCP(=O)(O)O)c1=O` [B-36, (4-(8-(2-Bromophenethyl)-7-(cyclohexylmethyl)-2,6-dioxo-1-(prop-2-yn-1-yl)-1,2,6,7-tetrahydro-3H-purin-3-yl)butyl)phosphonic acid]: the melting point is 143 to 145 °C. For the same molecule, at MRGPRX4-83S [1] (Table 3), the Emax is 84% and the EC50 is 4.28 ± 0.83 nM. For the same molecule, on human MRGPRX4-83L [2] (Table 4), the Emax turned out to be 95% and the EC50 turned out to be 1250 ± 410 nM. Moreover, on human MRGPRX4-83L [3] (Table 4), the EC50 was found to be 25.2 ± 3 nM and the Emax is 109%. Also, at MRGPRX4-83S [4] (Table 3), the Emax is 112% and the EC50 was 0.787 ± 0.164 nM.

As for `C#CCn1c(=O)c2[nH]c(CCc3cccc(F)c3)nc2n(CCCCP(=O)(O)O)c1=O` [B-3, (4-(8-(3-Fluorophenethyl)-2,6-dioxo-1-(prop-2-yn-1-yl)-1,2,6,7-tetrahydro-3H-purin-3-yl)butyl)phosphonic acid], the melting point was in the range of 154 to 156 °C. Besides, at MRGPRX4-83S [1] (Table 2), the Emax was 93% and the concentration for a half-maximal effect (EC50) worked out at 33.9 ± 5.1 nM. For the same molecule, the Emax at human MRGPRX4-83L [2] (Table 1) was 89%. On human MRGPRX4-83L [2] (setting [5]), the EC50 was 7940 ± 1450 nM. Also, on human MRGPRX4-83L [3] (Table 1), the EC50 was determined as 601 ± 103 nM and the Emax amounted to 110%. In addition, on MRGPRX4-83S [4] (Table 2), the Emax was determined as 118% and the EC50 worked out at 63.1 ± 18.6 nM.

`C#CCn1c(=O)c2[nH]c(CCc3cccc(C)c3)nc2n(CCCCP(=O)(O)O)c1=O` [B-5, (4-(8-(3-Methylphenethyl)-2,6-dioxo-1-(prop-2-yn-1-yl)-1,2,6,7-tetrahydro-3H-purin-3-yl)butyl)phosphonic acid] displayed a melting point of 244 to 246 °C. For the same molecule, on MRGPRX4-83S [1] (Table 2), the Emax was determined as 103% and the EC50 came to 34.3 ± 7.6 nM. Besides, at human MRGPRX4-83L [2] (Table 1), the Emax is 99%. For the same molecule, on human MRGPRX4-83L [2] (setting [5]), the EC50 was 15200 ± 520 nM. In addition, on human MRGPRX4-83L [3] (Table 1), the EC50 was found to be 492 ± 38 nM and the Emax was found to be 91%. In addition, at MRGPRX4-83S [4] (Table 2), the maximal effect (Emax) was 96% and the EC50 is 18.1 ± 1.5 nM.

As to `C#CCn1c(=O)c2c(nc(CCc3ccccc3F)n2C)n(CCCCP(=O)(O)O)c1=O` [B-28, (4-(8-(2-Fluorophenethyl)-7-methyl-2,6-dioxo-1-(prop-2-yn-1-yl)-1,2,6,7-tetrahydro-3H-purin-3-yl)butyl)phosphonic acid], the melting point was in the range of 217 to 219 °C. Further, at MRGPRX4-83S [1] (Table 3), the Emax worked out at 78% and the EC50 is 1.48 ± 0.18 nM. Further, on human MRGPRX4-83L [2] (Table 4), the Emax came out at 118% and the EC50 amounted to 113 ± 39 nM. Besides, at human MRGPRX4-83L [3] (Table 4), the EC50 stood at 39.7 ± 9.6 nM and the Emax is 62%. Besides, on MRGPRX4-83S [4] (Table 3), the Emax amounted to 92% and the EC50 stood at 0.284 ± 0.074 nM.

For `CCn1c(=O)c2[nH]c(CCc3ccc(F)cc3)nc2n(CCCCP(=O)(O)O)c1=O` [B-14, (4-(1-Ethyl-8-(4-fluorophenethyl)-2,6-dioxo-1,2,6,7-tetrahydro-3H-purin-3-yl)butyl)phosphonic acid], the melting point is 256 to 260 °C. Further, on MRGPRX4-83S [1] (Table 2), the Emax stood at 81% and the concentration for a half-maximal effect (EC50) amounted to 735 ± 131 nM. On human MRGPRX4-83L [2] (Table 1, bracketed value ± spread in IC50 column, not defined, inhibition of 2.6 μM B-16), the “value in brackets beside IC50 >10” value was determined as 3 ± 15. The IC50 against human MRGPRX4-83L [2] (Table 1, inhibition of the effect of 2.6 μM B-16) is over 10000 nM. Further, the EC50 on human MRGPRX4-83L [2] (setting [5]) is over 10000 nM. For the same molecule, on human MRGPRX4-83L [3] (Table 1), the EC50 worked out at 9450 ± 3230 nM and the Emax came to 99%. At MRGPRX4-83S [4] (Table 2), the Emax amounted to 74% and the EC50 is 500 ± 113 nM.

These data come from US20240002416A1 (Rheinische-Friedrich-Wilhelms-Universität Bonn, priority 2020, published 2024).
